The test system of data set [1] is SK-Hep-1 liver cancer cell line. The data set is described as follows: MTT analysis, anticancer activity. The format is cell-based, human. The following applies: 48 hr.
Description: (§1) To be specific, SK-Hep-1 cell, which is liver cancer cell line, was added to 96-well microplate (Falcon, USA) with the concentration of 3×10^5 cells/ml by 100 μl per well. Each extracted and separated substance dissolved in DMSO was added to the well by 100 μl for the final concentration to be from 50 μg/ml to 0.0244 μg/ml, with 200 μl of final volume. Each cell was cultured for 48 hr in a culture medium of 37° C. and 5% CO2. After cultivation, 20 μl of phosphate buffer solution containing 5 mg/ml of MTT (3-[4,5-dimethylthiazol-2-yl]-2,5-diphenyltetrazoliumbromide, Sigma Co.) reagent was added to each well, and then cultured for 4 hr. After taking 100 μl of supernant from each culture medium, 100 μl of 0.04N hydrochloric acid-isopropanol was added. After letting alone overnight, absorbance was measured at 560 nm using automatic Eliza detector (Molecular Divices Corp., USA). Anticancer activity of each extracted and separated substance was calculated from the absorbance value by Equation 1 and was expressed in terms of cell.
(§2) Average Existence Rate(%)=(Absorbance of Treated Group)/(Absorbance of Control Group)×100
Data set [2] has as its system PC-3 prostate cancer cell line. As to the kind of experiment: MTT analysis, anticancer activity. In kind it is cell-based, human. The conditions noted are these: 48 hr.
Description: as §1, §2
Data set [3] has as its system DU-145 prostate cancer cell line. As to the kind of experiment: MTT analysis, anticancer activity. In kind it is cell-based, human. The conditions noted are these: 48 hr.
Description: as §1, §2
For another data set, the system named is BT-20. The data set is described as follows: MTT analysis, anticancer activity. In kind it is cell-based, human. The conditions noted are these: 48 hr.
In another data set the test system is BT-549. The data set is described as follows: MTT analysis, anticancer activity. The following applies: 10 μg/ml sample. The format is cell-based, human.
The test system of the next data set is HS-578T. As to the kind of experiment: MTT analysis, anticancer activity. In kind it is cell-based, human. The following applies: 10 μg/ml sample.
A further data set relates to MCF-7. As to the kind of experiment: MTT analysis, anticancer activity. The format is cell-based, human. The following applies: MTT, 48 hr.
Another data set relates to SK-BR-3. The data set is described as follows: MTT analysis, anticancer activity. In kind it is cell-based, human. The following applies: 48 hr.
The subject of the next data set is T-47D. The data set is described as follows: MTT analysis, anticancer activity. The format is cell-based, human. The conditions noted are these: 48 hr.
For a further data set, the system named is HeLa. The data set is described as follows: MTT analysis, anticancer activity. The format is cell-based, human. The conditions noted are these: 48 hr.
The next data set deals with ME-180. As to the kind of experiment: MTT analysis, anticancer activity. In kind it is cell-based, human. The conditions noted are these: 10 μg/ml sample.
A further data set has as its system HT-29. As to the kind of experiment: MTT analysis, anticancer activity. In kind it is cell-based, human. The following applies: 10 μg/ml sample.
The next data set relates to LoVo. The data set is described as follows: MTT analysis, anticancer activity. The conditions noted are these: 10 μg/ml sample. The format is cell-based, human.
Another data set deals with SK-N-SH. As to the kind of experiment: MTT analysis, anticancer activity. In kind it is cell-based, human. The following applies: 48 hr.
In another data set the test system is T98G. As to the kind of experiment: MTT analysis, anticancer activity. In kind it is cell-based, human. The following applies: 48 hr.
The subject of a further data set is HS-746T. As to the kind of experiment: MTT analysis, anticancer activity. The following applies: 10 μg/ml sample. In kind it is cell-based, human.
In the next data set the test system is KATO-III. The data set is described as follows: MTT analysis, anticancer activity. The format is cell-based, human. The following applies: MTT, 48 hr.
For another data set, the system named is A431. As to the kind of experiment: MTT analysis, anticancer activity. The conditions noted are these: 48 hr. The format is cell-based, human.
A further data set deals with Hep-2. As to the kind of experiment: MTT analysis, anticancer activity. The format is cell-based, human. The following applies: MTT, 48 hr.
A further data set has as its system HT1080. The data set is described as follows: MTT analysis, anticancer activity. The format is cell-based, human. The conditions noted are these: 48 hr.
Another data set has as its system NCI-H69. The data set is described as follows: MTT analysis, anticancer activity. In kind it is cell-based, human. The following applies: 10 μg/ml sample.
The subject of another data set is SK-MEL-28. The data set is described as follows: MTT analysis, anticancer activity. The format is cell-based, human. The following applies: 48 hr.
Another data set has as its system SK-OV-3. As to the kind of experiment: MTT analysis, anticancer activity. The format is cell-based, human. The following applies: 10 μg/ml sample.
In another data set the test system is HS683. The data set is described as follows: MTT analysis, anticancer activity. The format is cell-based, human. The conditions noted are these: 48 hr.
The test system of the next data set is 293. The data set is described as follows: MTT analysis, cytotoxicity against normal cell line. The conditions noted are these: 10 μg/ml sample. In kind it is cell-based, human.
The test system of another data set is 3T3-L1. The data set is described as above. The format is cell-based, mouse. The conditions noted are these: 10 μg/ml sample.
The next data set concerns CHO. The description is as above. The following applies: 10 μg/ml sample. In kind it is cell-based, Chinese hamster.
The subject of another data set is CPAE. The description is as above. The conditions noted are these: 10 μg/ml sample. In kind it is cell-based, bovine.
For the next data set, the system named is HS27. Described as above. The format is cell-based, human. The following applies: 10 μg/ml sample.
The test system of the next data set is NIH-3T3. The data set is described as above. In kind it is cell-based, mouse. The conditions noted are these: 10 μg/ml sample.
Another data set can be described thus: Solubility. The format is physicochemical.
Data set [4] relates to mouse. The conditions noted are these: intraperitoneal, Rao et al.; cited from earlier work.
In data set [5] the test system is mouse. The conditions noted are these: reported by Rao et al.; cited from earlier work.
Data set [6] can be described thus: Anticancer activity of sauristolactam separated from saururus. The following applies: separated from saururus and crystallized.
Data set [7] relates to cell line treated as in Experimental Example 1. As to the kind of experiment: LDH analysis of remaining cell after NO detection. The format is cell-based. The conditions noted are these: 1% Triton treatment.
Excerpt: The remaining cell after NO detection was identified as dead by measuring existence rate and necrosis rate through MTT analysis and LDH analysis.

Values after ≈ are worked out from the molar mass of the structure shown.

Regarding `COc1ccc(C(O)C(C)Oc2ccc(C3OC(c4ccc(OC(C)[C@@H](O)c5ccc(OC)c(OC)c5)c(OC)c4)C(C)C3C)cc2OC)cc1OC` (single isomer, unassigned) [HNP-98701C, manassantin A], the “IC50 SK-Hep-1” value in data set [1] was 0.0560 µg/mL (≈ 0.0764 µM). Further, the “IC50 PC-3” value in data set [2] worked out at 0.0446 µg/mL (≈ 0.0609 µM). In data set [3], the “IC50 DU-145” value is 0.0263 µg/mL (≈ 0.0359 µM). Moreover, in the data set on BT-20, the “IC50 BT-20” value was determined as 0.0629 µg/mL (≈ 0.0858 µM). In addition, in the data set with BT-549, the “Existence rate class, BT-549 (in IC50 table)” value is reported as “* (Existence rate larger than 60% for 10 μg/ml sample)”. Further, the “Existence rate class, HS-578T (in IC50 table)” value in the data set with HS-578T is listed as “N.E. (Not effective; existence rate larger than 90% for 10 μg/ml sample)”. The “IC50 MCF-7” value with MCF-7 was above 10 µg/mL. Besides, in the data set with SK-BR-3, the “IC50 SK-BR-3” value stood at 0.0632 µg/mL (≈ 0.0862 µM). The “IC50 T-47D” value in the data set on T-47D was 0.1249 µg/mL (≈ 0.17 µM). Also, the “IC50 HeLa” value in the data set on HeLa is 0.1838 µg/mL (≈ 0.251 µM). Besides, the “Existence rate class, ME-180 (in IC50 table)” value with ME-180 was “* (Existence rate larger than 60% for 10 μg/ml sample)”. In addition, in the data set with HT-29, the “Existence rate class, HT-29 (in IC50 table)” value is “* (Existence rate larger than 60% for 10 μg/ml sample)”. Also, in the data set on LoVo, the “Existence rate class, LoVo (in IC50 table)” value is “* (Existence rate larger than 60% for 10 μg/ml sample)”. Also, the “IC50 SK-N-SH” value in the data set on SK-N-SH was found to be 0.5392 µg/mL (≈ 0.736 µM). Besides, the “IC50 T98G” value in the data set on T98G was 0.1014 µg/mL (≈ 0.138 µM). Further, the “Existence rate class, HS-746T (in IC50 table)” value in the data set on HS-746T is on record as “* (Existence rate larger than 60% for 10 μg/ml sample)”. In the data set with KATO-III, the “IC50 KATO-III” value turned out to be 0.7005 µg/mL (≈ 0.956 µM). For the same compound, the “IC50 A431” value in the data set with A431 turned out to be 0.3860 µg/mL (≈ 0.527 µM). Besides, in the data set on Hep-2, the “IC50 Hep-2” value stood at 0.0367 µg/mL (≈ 0.0501 µM). Further, the “IC50 HT1080” value with HT1080 turned out to be 0.1753 µg/mL (≈ 0.239 µM). In the data set on NCI-H69, the “Existence rate class, NCI-H69 (in IC50 table)” value is reported as “* (Existence rate larger than 60% for 10 μg/ml sample)”. Besides, the “IC50 SK-MEL-28” value with SK-MEL-28 was found to be 0.0725 µg/mL (≈ 0.0989 µM). For the same compound, the “Existence rate class, SK-OV-3 (in IC50 table)” value in the data set with SK-OV-3 is recorded as “N.E. (Not effective; existence rate larger than 90% for 10 μg/ml sample)”. In addition, the “IC50 HS683” value with HS683 came out at 0.2170 µg/mL (≈ 0.296 µM). For the same compound, the “Existence rate class, 293 (in IC50 table)” value in the data set on 293 is “* (Existence rate larger than 60% for 10 μg/ml sample)”. Also, the “Existence rate class, 3T3-L1 (in IC50 table)” value in the data set on 3T3-L1 is given as “N.E. (Not effective; existence rate larger than 90% for 10 μg/ml sample)”. For the same compound, the “Existence rate class, CHO (in IC50 table)” value in the data set with CHO is “* (Existence rate larger than 60% for 10 μg/ml sample)”. Besides, the “Existence rate class, CPAE (in IC50 table)” value with CPAE is “* (Existence rate larger than 60% for 10 μg/ml sample)”. The “Existence rate class, HS27 (in IC50 table)” value in the data set with HS27 is “N.E. (Not effective; existence rate larger than 90% for 10 μg/ml sample)”. Moreover, the “Existence rate class, NIH-3T3 (in IC50 table)” value with NIH-3T3 is given as “N.E. (Not effective; existence rate larger than 90% for 10 μg/ml sample)”. In the data set “Solubility”, the “Solubility in methanol, ethanol, ethyl acetate, chloroform and dimethylsulfoxide (DMSO)” value was “highly soluble”; the “Solubility in water, acetone, ether and hexane” value is given as “insoluble”. For the same compound, in the data set on mouse [4], the “spontaneous movement 50% reduction concentration (IC50)” value was 0.21 ± 0.02 mg/kg. The “50% lethal dose (LD50)” value with mouse [5] is recorded as 5.2 mg/kg.

Consider `COc1c(O)cc2c3c(cc4ccccc4c13)N(C)C2=O` [sauristolactam], for which the anticancer activity entry in data set [6] is on record as “no anticancer activity was detected”.

Turning to Triton X-100, the “LDH Analysis (necrosis rate)” value in data set [7] is on record as 100%.
